Measured values: ChEMBL document CHEMBL2073989, “Immunohistochemical distribution and functional characterization of an organic anion transporting polypeptide 2 (oatp2)” (FEBS Lett, 1999)

Molecular target: T1, Solute carrier organic anion transporter family member 1A4 (Rattus norvegicus, UniProt O35913)
T1 sequence (O35913 whole entry): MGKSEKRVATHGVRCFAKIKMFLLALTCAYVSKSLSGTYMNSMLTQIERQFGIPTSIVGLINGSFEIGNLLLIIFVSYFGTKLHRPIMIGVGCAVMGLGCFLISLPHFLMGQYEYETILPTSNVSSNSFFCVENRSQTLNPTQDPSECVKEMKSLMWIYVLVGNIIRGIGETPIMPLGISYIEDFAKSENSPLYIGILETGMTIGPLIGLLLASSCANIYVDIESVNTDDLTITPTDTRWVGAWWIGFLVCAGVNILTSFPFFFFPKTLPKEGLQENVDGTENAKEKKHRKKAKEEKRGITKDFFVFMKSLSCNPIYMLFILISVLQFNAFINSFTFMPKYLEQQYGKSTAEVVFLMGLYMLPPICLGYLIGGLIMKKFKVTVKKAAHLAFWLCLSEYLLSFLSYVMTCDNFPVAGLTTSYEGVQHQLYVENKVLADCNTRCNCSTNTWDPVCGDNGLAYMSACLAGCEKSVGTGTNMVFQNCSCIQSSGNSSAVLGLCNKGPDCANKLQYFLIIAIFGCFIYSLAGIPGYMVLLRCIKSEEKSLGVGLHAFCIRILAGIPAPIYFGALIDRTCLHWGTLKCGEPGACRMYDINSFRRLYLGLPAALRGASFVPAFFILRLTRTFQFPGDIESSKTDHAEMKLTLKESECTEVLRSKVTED
Experiment: TP_TRANSPORTER: uptake in Xenopus laevis oocytes
Type: functional, cell-based
Details: oocyte

O=C(O)CCCC[C@@H]1SC[C@@H]2NC(=O)N[C@@H]21 [BIOTIN]
Activity: substrate [+]
